# Experimental data taken from patent US20130296228A1, “EFFLUX PUMP INHIBITORS” (priority 2010, published 2013).
# Read-outs that look alike come from different tables or passages of the source.
# Legend:
# P. aeruginosa 23587 [1] = experiment: Diameter of zone of inhibition of antimicrobial agents with or without efflux pump inhibitor; type: cell-based
# Description: Since RND efflux pumps operate by utilizing energy in […], metabolic inhibitor, sodium azide brings about MDR RND pump inhibition by causing energy deprivation.
# MDR P. aeruginosa = experiment: Enhanced killing: viable count over time; type: cell-based; conditions: for killing effect of the agent individually: quinolone arginine salt 8 μg/ml, ceftazidime 8 and 16 μg/ml
# Description: Table 4 results of efflux pump inhibition based cidal synergy between S-(−)-9-Fluoro-8-(4-hydroxy-piperidin-1-yl)-5-methyl-6,7-dihydro-1-oxo-1H,5H-benzo[i,j]quinolizine-2-carboxylic acid L-arginine salt tetrahydrate nd ceftazidime. Potent cidal synergy is observed between S-(−)-9-Fluoro-8-(4-hydroxy-piperidin-1-yl)-5-methyl-6,7-dihydro-1-oxo-1H,5H-benzo[i,j]quinolizine-2-carboxylic acid L-arginine salt tetrahydrate (concentration, 8 μg/ml) and ceftazidime (concentration, 8 and 16 μg/ml). These concentrations are at least 4 times lower than their MIC. […] Thus the efflux pump inhibition based synergy is not just growth inhibitory but also, most importantly, imparts extensive killing of the pathogen.
# [2] = tested on: MDR clinical isolate of P. aeruginosa 2301; experiment: Systemic infection in mice, % survival; type: in vivo; conditions: for % survival: mice; for protection of infected animals, agent individually: quinolone arginine salt 50 mg/kg, ceftazidime 300 mg/kg
# P. aeruginosa 23587 [3] = experiment: Survival of high density inoculation in MHA medium; type: cell-based; conditions: high density inoculation 2-5 × 10^9 CFU/ml
# P. aeruginosa 2301 [4] = experiment: Survival of high density inoculation in MHA medium; type: cell-based; conditions: high density inoculation 2-5 × 10^9 CFU/ml; 20 mcg/ml in MHA medium
# Description: In a most surprising manner, the combination of ceftazidime and azithromycin and tigecycline respectively brought about more than 7 log reduction in the bacterial count as compared to individual effects in highly resistant Pseudomonas strain. Moreover in a very unusual and surprising manner this tremendous bactericidal effect is taking place at concentrations much below than their individual inhibitory concentrations. […] It is also likely that ceftazidime interacts with outer membrane porins and acts as a porin modulator. Bacalum et al. have shown that ceftazidime binds to outer membrane porins with high affinity (Bacalum et al. Romanian. J. Biophys., 19, 105-116, 2009).
# [5] = tested on: highly resistant P. aeruginosa strains; experiment: MIC; type: cell-based; conditions: highly resistant P. aeruginosa strains used for infecting animals
# outer membrane porins = conditions: Bacalum et al. 2009; cited from earlier work
# P. aeruginosa 2301 [6] = experiment: Diameter of zone of inhibition of antimicrobial agents with or without efflux pump inhibitor; type: cell-based; conditions: for Diameter of zone of inhibition: P. aeruginosa 2301
structure (smiles),measurement,setting,value
"CC(C)(O/N=C(\C(=O)N[C@@H]1C(=O)N2C(C(=O)[O-])=C(C[n+]3ccccc3)CS[C@H]12)c1csc(N)n1)C(=O)O [Ceftazidime, ceftazidime]","inhibition of MDR RND efflux pumps, concluded from potentiation",P. aeruginosa 23587 [1]; clinical isolates of P. aeruginosa,inhibit RND pumps
same,viable count,"MDR P. aeruginosa; 8 μg/ml, 0 h",6.11 Log CFU/ ml
same,viable count,"MDR P. aeruginosa; 8 μg/ml, 24 h",8.64 Log CFU/ ml
same,viable count,"MDR P. aeruginosa; 8 μg/ml, 48 h",9.3 Log CFU/ ml
same,viable count,"MDR P. aeruginosa; 16 μg/ml, 0 h",6.11 Log CFU/ ml
same,viable count,"MDR P. aeruginosa; 16 μg/ml, 24 h",5.30 Log CFU/ ml
same,viable count,"MDR P. aeruginosa; 16 μg/ml, 48 h",9.2 Log CFU/ ml
same,killing effect of the agent individually,MDR P. aeruginosa,ineffective
same,% survival,"[2]; Table 5, 300 mg/kg BID × 1 day, Subcutaneous",16.6%
same,% survival,"[2]; Table 7, 100 mg/kg BID × 1 day, Oral",16.6%
same,% survival,"[2]; Table 7, 200 mg/kg BID × 1 day, Oral",16.6%
same,"protection of infected animals, agent individually",[2],could not protect
same,CFU/ml at 48 h,P. aeruginosa 23587 [3]; 64 mcg/ml in MHA medium,>5 × 10^9 CFU/ml
same,CFU/ml at 48 h,P. aeruginosa 2301 [4],>5 × 10^9 CFU/ml
same,MIC,"[5]; Pseudomonas aeruginosa, read-out: MIC",> 32 µg/mL
same,binding to outer membrane porins,outer membrane porins,high affinity
"C[C@H]1CCc2c(N3CCC(O)CC3)c(F)cc3c(=O)c(C(=O)O)cn1c23.N=C(N)NCCC[C@H](N)C(=O)O.O.O.O.O [S-(−)-9-Fluoro-8-(4-hydroxy-piperidin-1-yl)-5-methyl-6,7-dihydro-1-oxo-1H,5H-benzo[i,j]quinolizine-2-carboxylic acid L-arginine salt tetrahydrate]",change of activity on addition of sodium azide,P. aeruginosa 23587 [1],potentiated
same,change of activity in the presence of cefepime and ceftazidime,P. aeruginosa 23587 [1]; Example 3,significant potentiation
same,Diameter of zone of inhibition,"P. aeruginosa 23587 [1]; Table 1, P. aeruginosa 23587, +PAN (20 μg/ml), 4 μg/well",30 m.m.
same,Diameter of zone of inhibition,"P. aeruginosa 23587 [1]; Table 1, P. aeruginosa 23587, +PAN (20 μg/ml), 8 μg/well",34 m.m.
same,Diameter of zone of inhibition,"P. aeruginosa 23587 [1]; Table 1, P. aeruginosa 23587, +PAN (20 μg/ml), 16 μg/well",35 m.m.
same,Diameter of zone of inhibition,"P. aeruginosa 23587 [1]; Table 1, P. aeruginosa 23587, Control, 4 μg/well",Nil
same,Diameter of zone of inhibition,"P. aeruginosa 23587 [1]; Table 1, P. aeruginosa 23587, Control, 8 μg/well",12 m.m.
same,Diameter of zone of inhibition,"P. aeruginosa 23587 [1]; Table 1, P. aeruginosa 23587, Control, 16 μg/well",15 m.m.
same,Diameter of zone of inhibition,"P. aeruginosa 23587 [1]; Table 2, P. aeruginosa (23587), +Reserpine (25 μg/ml), 8 μg/well",Nil
same,Diameter of zone of inhibition,"P. aeruginosa 23587 [1]; Table 2, P. aeruginosa (23587), +Reserpine (25 μg/ml), 16 μg/well",11 m.m.
same,Diameter of zone of inhibition,"P. aeruginosa 23587 [1]; Table 2, P. aeruginosa (23587), +Reserpine (25 μg/ml), 32 μg/well",15 m.m.
same,Diameter of zone of inhibition,"P. aeruginosa 23587 [1]; Table 2, P. aeruginosa (23587), +sodium azide (10 μg/ml), 8 μg/well",12 m.m.
same,Diameter of zone of inhibition,"P. aeruginosa 23587 [1]; Table 2, P. aeruginosa (23587), +sodium azide (10 μg/ml), 16 μg/well",15 m.m.
same,Diameter of zone of inhibition,"P. aeruginosa 23587 [1]; Table 2, P. aeruginosa (23587), +sodium azide (10 μg/ml), 32 μg/well",20 m.m.
same,Diameter of zone of inhibition,"P. aeruginosa 23587 [1]; Table 2, P. aeruginosa (23587), Control, 8 μg/well",Nil
same,Diameter of zone of inhibition,"P. aeruginosa 23587 [1]; Table 2, P. aeruginosa (23587), Control, 16 μg/well",11 m.m.
same,Diameter of zone of inhibition,"P. aeruginosa 23587 [1]; Table 2, P. aeruginosa (23587), Control, 32 μg/well",15 m.m.
same,Diameter of zone of inhibition,"P. aeruginosa 23587 [1]; Table 3, P. aeruginosa 23587, +Cefepime (1 μg/ml), 8 μg/Well",12 m.m.
same,Diameter of zone of inhibition,"P. aeruginosa 23587 [1]; Table 3, P. aeruginosa 23587, +Cefepime (1 μg/ml), 16 μg/Well",18 m.m.
same,Diameter of zone of inhibition,"P. aeruginosa 23587 [1]; Table 3, P. aeruginosa 23587, +Cefepime (1 μg/ml), 32 μg/Well",24 m.m.
same,Diameter of zone of inhibition,"P. aeruginosa 23587 [1]; Table 3, P. aeruginosa 23587, +Ceftazidime (1 μg/ml), 8 μg/Well",20 m.m.
same,Diameter of zone of inhibition,"P. aeruginosa 23587 [1]; Table 3, P. aeruginosa 23587, +Ceftazidime (1 μg/ml), 16 μg/Well",25 m.m.
same,Diameter of zone of inhibition,"P. aeruginosa 23587 [1]; Table 3, P. aeruginosa 23587, +Ceftazidime (1 μg/ml), 32 μg/Well",33 m.m.
same,Diameter of zone of inhibition,"P. aeruginosa 23587 [1]; Table 3, P. aeruginosa 23587, Control, 8 μg/Well",9 m.m.
same,Diameter of zone of inhibition,"P. aeruginosa 23587 [1]; Table 3, P. aeruginosa 23587, Control, 16 μg/Well",14.5 m.m.
same,Diameter of zone of inhibition,"P. aeruginosa 23587 [1]; Table 3, P. aeruginosa 23587, Control, 32 μg/Well",19.5 m.m.
same,change of activity in the presence of PAN,P. aeruginosa 23587 [1]; clinical isolates P. aeruginosa 23587 and P. aeruginosa 2301,Synergistic enhancement
same,change of activity in the presence of cefepime and ceftazidime,P. aeruginosa 2301 [6]; Example 6,significant potentiation
same,Diameter of zone of inhibition,"P. aeruginosa 2301 [6]; Table 1, +PAN (20 μg/ml), 4 μg/well",25 m.m.
same,Diameter of zone of inhibition,"P. aeruginosa 2301 [6]; Table 1, +PAN (20 μg/ml), 8 μg/well",32 m.m.
same,Diameter of zone of inhibition,"P. aeruginosa 2301 [6]; Table 1, +PAN (20 μg/ml), 16 μg/well",38 m.m.
same,Diameter of zone of inhibition,"P. aeruginosa 2301 [6]; Table 1, Control, 4 μg/well",15.5 m.m.
same,Diameter of zone of inhibition,"P. aeruginosa 2301 [6]; Table 1, Control, 8 μg/well",20 m.m.
same,Diameter of zone of inhibition,"P. aeruginosa 2301 [6]; Table 1, Control, 16 μg/well",23.5 m.m.
same,Diameter of zone of inhibition,"P. aeruginosa 2301 [6]; Table 6, +Cefepime (2 μg/ml), 8 μg/Well",12 m.m.
same,Diameter of zone of inhibition,"P. aeruginosa 2301 [6]; Table 6, +Cefepime (2 μg/ml), 16 μg/Well",18 m.m.
same,Diameter of zone of inhibition,"P. aeruginosa 2301 [6]; Table 6, +Cefepime (2 μg/ml), 32 μg/Well",24 m.m.
same,Diameter of zone of inhibition,"P. aeruginosa 2301 [6]; Table 6, +Ceftazidime (0.5 μg/ml), 8 μg/Well",20 m.m.
same,Diameter of zone of inhibition,"P. aeruginosa 2301 [6]; Table 6, +Ceftazidime (0.5 μg/ml), 16 μg/Well",25 m.m.
same,Diameter of zone of inhibition,"P. aeruginosa 2301 [6]; Table 6, +Ceftazidime (0.5 μg/ml), 32 μg/Well",33 m.m.
same,Diameter of zone of inhibition,"P. aeruginosa 2301 [6]; Table 6, Control, 8 μg/Well",9 m.m.
same,Diameter of zone of inhibition,"P. aeruginosa 2301 [6]; Table 6, Control, 16 μg/Well",14.5 m.m.
same,Diameter of zone of inhibition,"P. aeruginosa 2301 [6]; Table 6, Control, 32 μg/Well",19.5 m.m.
same,viable count,"MDR P. aeruginosa; 8 μg/ml, 0 h",6.11 Log CFU/ ml
same,viable count,"MDR P. aeruginosa; 8 μg/ml, 24 h",8.64 Log CFU/ ml
same,viable count,"MDR P. aeruginosa; 8 μg/ml, 48 h",9.4 Log CFU/ ml
same,viable count,"MDR P. aeruginosa; 16 μg/ml, 0 h",6.11 Log CFU/ ml
same,viable count,"MDR P. aeruginosa; 16 μg/ml, 24 h",4.30 Log CFU/ ml
same,viable count,"MDR P. aeruginosa; 16 μg/ml, 48 h",<3.0 Log CFU/ ml
same,killing effect of the agent individually,MDR P. aeruginosa,ineffective
same,% survival,"[2]; Table 5, 50 mg/kg BID × 1 day, Subcutaneous",0%
same,% survival,"[2]; Table 5, 75 mg/kg BID × 1 day, Subcutaneous",33.3%
same,% survival,"[2]; Table 5, 100 mg/kg BID × 1 day, Subcutaneous",100%
same,"protection of infected animals, agent individually",[2],could not protect
same,CFU/ml at 48 h,P. aeruginosa 23587 [3]; 32 mcg/ml in MHA medium,>5 × 10^9 CFU/ml
same,MIC,[5],16 µg/mL
